Reference: the OligoGym collection
Oligonucleotides are written 5' to 3', each unit as a sugar letter and its base; * is a phosphorothioate linkage, no mark a phosphodiester; rarer units and linkages stand in square brackets, end groups in braces. Plain capitals give the bases only. d = 2'-deoxy (DNA); r = 2'-OH (RNA)

biological target: UBE2G1; experiment: reporter assay of Huesken 2005; details: siRNA
Note: test concentration or dose not given here.

| Substance | normalised inhibition (eCFP-eYFP dual reporter) |
| --- | --- |
| sense rArArArGrUrUrGrCrCrCrGrCrUrGrUrGrUrArAdTdT / antisense rUrUrArCrArCrArGrCrGrGrGrCrArArCrUrUrUdTdC | 93.9% |
| sense rGrArCrArArUrGrArUrCrUrCrUrArCrCrGrArUdTdT / antisense rArUrCrGrGrUrArGrArGrArUrCrArUrUrGrUrCdAdT | 103% |
| sense rUrGrArArArUrUrCrArUrUrArCrArGrArArArUdTdT / antisense rArUrUrUrCrUrGrUrArArUrGrArArUrUrUrCrAdTdT | 61.6% |
| sense rGrArUrArCrArCrUrUrUrArUrGrArArGrGrUrGdTdT / antisense rCrArCrCrUrUrCrArUrArArArGrUrGrUrArUrCdTdG | 66% |
| sense rCrArArUrGrArUrCrUrCrUrArCrCrGrArUrGrGdTdT / antisense rCrCrArUrCrGrGrUrArGrArGrArUrCrArUrUrGdTdC | 86.7% |
| sense rCrCrCrUrCrCrGrArCrCrUrCrCrUrArArArArUdTdT / antisense rArUrUrUrUrArGrGrArGrGrUrCrGrGrArGrGrGdGdA | 62.4% |
| sense rCrArCrCrCrArArArUrGrUrUrGrArUrArArArAdTdT / antisense rUrUrUrUrArUrCrArArCrArUrUrUrGrGrGrUrGdCdC | 73.1% |
| sense rArGrArCrUrCrArCrCrUrGrCrUrArArUrGrUrUdTdT / antisense rArArCrArUrUrArGrCrArGrGrUrGrArGrUrCrUdCdC | 81.1% |
| sense rArGrArUrUrArUrCrCrCrCrUrCrCrGrArCrCrUdTdT / antisense rArGrGrUrCrGrGrArGrGrGrGrArUrArArUrCrUdTdT | 84.2% |
| sense rGrGrUrGrArUrGrUrGrUrGrCrArUrUrUrCrUrAdTdT / antisense rUrArGrArArArUrGrCrArCrArCrArUrCrArCrCdAdT | 94.7% |
| sense rGrGrCrUrUrUrUrCrUrGrCrArGrGrUrUrUrArAdTdT / antisense rUrUrArArArCrCrUrGrCrArGrArArArArGrCrCdTdT | 83.3% |
| sense rArGrUrGrUrCrArUrUrUrCrUrArUrGrCrUrGrGdTdT / antisense rCrCrArGrCrArUrArGrArArArUrGrArCrArCrUdAdA | 47.6% |
| sense rCrUrCrUrArCrCrGrArUrGrGrGrArArGrUrCrCdTdT / antisense rGrGrArCrUrUrCrCrCrArUrCrGrGrUrArGrArGdAdT | 68.3% |
| sense rArUrUrGrGrCrCrCrUrCrCrArGrArUrArCrArCdTdT / antisense rGrUrGrUrArUrCrUrGrGrArGrGrGrCrCrArArUdAdA | 36.1% |
| sense rArUrGrArCrArArUrGrArUrCrUrCrUrArCrCrGdTdT / antisense rCrGrGrUrArGrArGrArUrCrArUrUrGrUrCrArUdCdT | 40.5% |
| sense rArArArCrCrArUrCrArUrGrArUrUrArGrUrGrUdTdT / antisense rArCrArCrUrArArUrCrArUrGrArUrGrGrUrUrUdCdC | 66.9% |
| sense rUrGrArArArArGrCrCrArGrArGrGrArArCrGrCdTdT / antisense rGrCrGrUrUrCrCrUrCrUrGrGrCrUrUrUrUrCrAdTdA | 35.9% |
| sense rArGrArCrCrCrUrArArUrGrGrArGrArCrUrCrAdTdT / antisense rUrGrArGrUrCrUrCrCrArUrUrArGrGrGrUrCrUdGdC | 89.8% |
| sense rArArGrUrUrGrCrCrCrGrCrUrGrUrGrUrArArGdTdT / antisense rCrUrUrArCrArCrArGrCrGrGrGrCrArArCrUrUdTdT | 79% |
| sense rArGrArUrArGrArArArUrGrGrArGrArArUrUrUdTdT / antisense rArArArUrUrCrUrCrCrArUrUrUrCrUrArUrCrUdTdC | 102% |
| sense rArArUrGrGrArGrGrGrArArGrArUrArGrArArAdTdT / antisense rUrUrUrCrUrArUrCrUrUrCrCrCrUrCrCrArUrUdCdT | 85.9% |
| sense rCrCrArCrArCrUrGrUrGrGrArArArCrCrArUrCdTdT / antisense rGrArUrGrGrUrUrUrCrCrArCrArGrUrGrUrGrGdAdT | 86.1% |
| sense rUrArUrCrCrArCrArCrUrGrUrGrGrArArArCrCdTdT / antisense rGrGrUrUrUrCrCrArCrArGrUrGrUrGrGrArUrAdGdG | 41.2% |
| sense rCrCrUrArArArArUrGrArArArUrUrCrArUrUrAdTdT / antisense rUrArArUrGrArArUrUrUrCrArUrUrUrUrArGrGdAdG | 69.6% |
| sense rUrGrCrGrArArArGrArArUrGrGrArGrGrGrArAdTdT / antisense rUrUrCrCrCrUrCrCrArUrUrCrUrUrUrCrGrCrAdGdC | 72.7% |
| sense rCrUrArArUrGrGrArGrArCrUrCrArCrCrUrGrCdTdT / antisense rGrCrArGrGrUrGrArGrUrCrUrCrCrArUrUrArGdGdG | 71.9% |

biological target: UBE2E3; experiment: reporter assay of Huesken 2005; details: siRNA

| Substance | normalised inhibition (eCFP-eYFP dual reporter) |
| --- | --- |
| sense rGrCrCrArCrUrCrArGrUrArUrUrUrGrArCrCrAdTdT / antisense rUrGrGrUrCrArArArUrArCrUrGrArGrUrGrGrCdTdA | 90.9% |
| sense rArUrCrArArCrArGrUrCrArGrGrGrArGrUrCrAdTdT / antisense rUrGrArCrUrCrCrCrUrGrArCrUrGrUrUrGrArUdGdT | 70.5% |
| sense rCrArCrCrArArArCrUrCrUrCrUrArGrCrArArAdTdT / antisense rUrUrUrGrCrUrArGrArGrArGrUrUrUrGrGrUrGdTdT | 84.2% |
| sense rArUrUrUrGrUrUrCrCrCrUrUrUrUrGrArCrArGdTdT / antisense rCrUrGrUrCrArArArArGrGrGrArArCrArArArUdAdG | 47.8% |
| sense rArGrArUrCrArArCrUrArUrArCrUrUrGrGrUrCdTdT / antisense rGrArCrCrArArGrUrArUrArGrUrUrGrArUrCrUdCdC | 52.8% |
| sense rArUrArGrCrCrArCrUrCrArGrUrArUrUrUrGrAdTdT / antisense rUrCrArArArUrArCrUrGrArGrUrGrGrCrUrArUdGdC | 88.7% |
| sense rGrGrArGrArUrArArCrArUrUrUrArUrGrArArUdTdT / antisense rArUrUrCrArUrArArArUrGrUrUrArUrCrUrCrCdTdT | 75.8% |
| sense rCrUrCrCrUrArArUrUrGrCrArGrUrGrCrUrGrGdTdT / antisense rCrCrArGrCrArCrUrGrCrArArUrUrArGrGrArGdGdA | 51.1% |
| sense rGrGrArGrUrCrCrCrGrCrUrUrUrGrArCrUrArUdTdT / antisense rArUrArGrUrCrArArArGrCrGrGrGrArCrUrCrCdAdG | 69.2% |
| sense rUrCrArArCrArGrUrCrArGrGrGrArGrUrCrArUdTdT / antisense rArUrGrArCrUrCrCrCrUrGrArCrUrGrUrUrGrAdTdG | 74.7% |
| sense rCrArGrUrGrGrCrArGrUrUrCrArGrArUrGrCrGdTdT / antisense rCrGrCrArUrCrUrGrArArCrUrGrCrCrArCrUrGdCdT | 53% |
| sense rCrArGrUrGrCrUrGrGrGrCrCrUrArArArGrGrAdTdT / antisense rUrCrCrUrUrUrArGrGrCrCrCrArGrCrArCrUrGdCdA | 73.2% |
| sense rGrGrArGrCrUrArGrCrUrGrArArArUrArArCrCdTdT / antisense rGrGrUrUrArUrUrUrCrArGrCrUrArGrCrUrCrCdTdT | 80.5% |
| sense rArArArArCrCrUrUrCrUrGrCrCrArCrCrCrArGdTdT / antisense rCrUrGrGrGrUrGrGrCrArGrArArGrGrUrUrUrUdCdT | 32.1% |
| sense rUrArCrUrUrUrCrCrGrCrArCrCrArGrArArUrCdTdT / antisense rGrArUrUrCrUrGrGrUrGrCrGrGrArArArGrUrAdAdC | 49.2% |
| sense rUrGrArArUrGrGrArGrArUrCrArArCrUrArUrAdTdT / antisense rUrArUrArGrUrUrGrArUrCrUrCrCrArUrUrCrAdTdA | 90.5% |
| sense rUrCrArGrGrGrArGrUrCrArUrCrUrGrUrCrUrGdTdT / antisense rCrArGrArCrArGrArUrGrArCrUrCrCrCrUrGrAdCdT | 49% |
| sense rArUrCrArCrUrGrCrArArCrArUrCrArArCrArGdTdT / antisense rCrUrGrUrUrGrArUrGrUrUrGrCrArGrUrGrArUdAdG | 69.7% |
| sense rCrCrUrUrGrArUrCrCrUrCrCrUrCrCrUrArArUdTdT / antisense rArUrUrArGrGrArGrGrArGrGrArUrCrArArGrGdGdT | 81.6% |
| sense rUrUrArUrCrCrArUrUrUrArArGrCrCrArCrCrAdTdT / antisense rUrGrGrUrGrGrCrUrUrArArArUrGrGrArUrArAdTdC | 28.7% |
| sense rUrArUrGrArArGrGrUrGrGrUrGrUrGrUrUrUrUdTdT / antisense rArArArArCrArCrArCrCrArCrCrUrUrCrArUrAdTdA | 50.1% |
| sense rUrCrArGrArArGrGrArGrCrUrArGrCrUrGrArAdTdT / antisense rUrUrCrArGrCrUrArGrCrUrCrCrUrUrCrUrGrAdAdT | 87.4% |
| sense rCrUrGrGrArGrUrCrCrCrGrCrUrUrUrGrArCrUdTdT / antisense rArGrUrCrArArArGrCrGrGrGrArCrUrCrCrArGdTdT | 72% |
| sense rArArCrArGrArGrCrArGrArArCrArCrGrArCrAdTdT / antisense rUrGrUrCrGrUrGrUrUrCrUrGrCrUrCrUrGrUrUdGdG | 76.9% |
| sense rCrArArCrCrCrUrGrCrGrGrArUrCrCrUrCrUrGdTdT / antisense rCrArGrArGrGrArUrCrCrGrCrArGrGrGrUrUrGdCdA | 56.3% |
| sense rGrUrGrCrUrArArArArGrArArUrUrCrArGrArAdTdT / antisense rUrUrCrUrGrArArUrUrCrUrUrUrUrArGrCrArCdTdA | 81.5% |
